{
  "source": "paper PMC5955599",
  "about": "“The HTLV-1 gp21 fusion peptide inhibits antigen specific T-cell activation in-vitro and in mice” (PLoS Pathogens, 2018)",
  "key": {"[1]": {"system": "MOG35-55–antigen specific T-cells", "experiment": "Cytokine secretion from activated antigen-specific T-cells (ELISA)", "type": "cell-based, mouse (C57Bl/6J)", "details": "peptide at 10μM, APC-activated T-cells, media 24 hours following activation, n = 12", "method": "Fig 2 Modulation of Th1/Th2 gene expression and cytokine secretion from activated T-cells by the HTLV FP. MOG35-55–antigen specific T-cells were activated by irradiated MOG35-55 presenting APCs, in the presence of the HTLV FP at 10μM. (A) Total RNA was isolated 24 hours following activation and mRNA expression levels were determined by qRT-PCR. The values of each gene were normalized to Rpl13a as a housekeeping control. The HTLV FP reduces mRNA expression of Th1 specific genes (IFNG, LTA, and STAT4) and elevates mRNA expression of Th2 specific genes (IL4 and IL10). The data is presented as arbitrary units. n≥3. (B) Media was collected 24 hours following activation and secretion of cytokines was measured by ELISA assay. IFN-γ secretion is inhibited, IL4 secretion is elevated and TNFα is not affected by the HTLV FP. n = 12. One-way ANOVA was used for statistical analysis. *P<0.05; **P<0.01;***P<0.001.\nAntigen-specific T-cells were plated onto round 96-well plates in medium containing RPMI-1640 supplemented with 2.5% fetal calf serum (FCS), 100 U/ml penicillin, 100 μg/ml streptomycin, 50μM β-mercaptoethanol, and 2mM L-glutamine. […] In addition, the relevant peptide was added. Each treatment was made with quadruplicate. Analysis of IFN-γ, IL-4 and TNFα secretion was performed by ELISA 24 hours after cell activation according to standard protocols from R&D systems."}, "C57BL/6 female mice": {"system": "C57BL/6 female mice", "experiment": "MOG35-55-induced experimental autoimmune encephalomyelitis (EAE)", "type": "in vivo, mouse", "method": "(A-B) MOG35-55–antigen specific T-cells were activated by irradiated MOG35-55 presenting APCs, in the presence of HTLV FP or HTLV Scr at 10μM. (A) The proliferative responses were assessed by H^3-thymidine incorporation assay, and normalized to the proliferation of non-activated T-cells. The data is presented as mean inhibition of proliferation. n = 12. (B) IFN-γ was measured by ELISA assay. n = 12. (C-D) EAE was induced in C57BL/6 female mice that were treated with a single dose of HTLV FP, HTLV Scr or vehicle. […] (C) Direct clinical measurement of EAE phenotype in a 5-point scale with increased disease symptoms correlating with higher score value. The data is presented as mean EAE clinical score. (D) Mice were weighed the day before EAE induction, and the change (as a percentage) in weight was recorded. The data is presented as mean change from the initial weight. One-way ANOVA was used for statistical analysis. ^a HTLV FP ≠ Vehicle; ^b HTLV FP ≠ Vehicle & HTLV Scr; ^c HTLV FP ≠ HTLV Scr. ^a,b,cP<0.05. (E) Spleenocytes were harvested at 26 DPI and stimulated using MOG35-55. The proliferative responses were assessed by H^3-thymidine incorporation assay and normalized to the proliferation of non-activated T-cells. The data is presented as counts per minute (CPM). n = 7. (F-G) Spleenocytes were harvested at 26 DPI and stimulated using MOG35-55. Media was collected 48 hours following activation and secretion of IFN-γ and IL4 was measured by ELISA assay. […] One-way ANOVA was used for statistical analysis. *P<0.05;**P<0.01;***P<0.001; ns, not significant.\nEAE was induced in 9-week-old wild type and homozygous C57BL/6 female mice (Harlan Laboratories Israel/ Weizmann Institute animal facilities) by injecting a peptide comprising residues 35–55 of mouse myelin oligodendrocyte glycoprotein (MOG35–55; PolyPeptide Laboratories, Strasbourg, France). Mice were injected subcutaneously above the lumbar spinal cord with 100 μl of emulsion containing 200 μg/mouse of the encephalitogenic peptide in complete Freund’s adjuvant (BD-Difco) enriched with 250 μg/mouse of heat-inactivated Mycobacterium tuberculosis (BD-Difco) at 0 days post-induction (DPI). The HTLV FP was dissolved in PBS and added to the emulsion (1mg/kg). Pertussis toxin (Enzo Life Sciences) at a dose of 300 ng per mouse was injected intraperitoneally immediately after the encephalitogenic injection, as well as at […]. EAE disease was scored using a five-point grading with 0 for no clinical disease; 1, tail weakness; 2, paraparesis (incomplete paralysis of one or two hindlimbs); 3, paraplegia (complete paralysis of one or two hindlimbs); 4, paraplegia with forelimb weakness or paralysis; 5, moribund or dead animals. The mice were examined daily.\nEAE was induced in C57BL/6 female mice that were either treated with a single dose of HTLV FP or vehicle. […] (A) Direct clinical measurement of EAE phenotype in a 5-point scale with increased disease symptoms correlating with higher score value. The data is presented as mean EAE clinical score. (B) Mice were weighed the day before EAE induction, and the change (as a percentage) in weight was recorded. The data is presented as mean change from the initial weight. Student’s t-test was used for statistical analysis. *P<0.05; **P<0.01;***P<0.001. (TIF) Click here for additional data file."}, "[2]": {"system": "human peripheral T lymphocytes", "experiment": "Cytokine secretion from primary human peripheral T-cells (ELISA)", "type": "cell-based", "details": "peptide at 10μM, CD3 and CD28 antibodies, media 48 hours following activation, n = 12", "method": "Fig 4 Primary human T-cell activation is inhibited upon HTLV FP treatment. Human peripheral T lymphocytes were isolated from whole blood and activated using CD3 and CD28 antibodies, in the presence of HTLV FP or HTLV Scr at 10μM. Media was collected 48 hours following activation and secretion of IL2, IFN-γ and IL10 was measured by ELISA assay. […] One-way ANOVA was used for statistical analysis. *P<0.05; ***P<0.001; ns, not significant.\nHuman peripheral T lymphocytes were isolated from whole blood of healthy adult donors by dextran sedimentation and Ficoll (Sigma) gradient separation followed by depletion of B cells using nylon wool column (Unisorb), to which B cells were adsorbed. Cells were incubated in a complete RPMI growth medium (500 ml RPMI Ca/Mg + heat inactivated FCS (10% final) + 5 ml 200 mM L-Glu (2 mM final) +5 ml […] Na pyruvate (1 mM final) + 5 ml Pen Strep antibiotics) for more than 2 h, and then non-adherent cells were harvested and transferred to a new plate, resulting in ~90% CD3+ T lymphocytes. Cells were then used for in vitro assay, in which […] were plated per well in a 96-well plate and activated using CD3 and CD28 antibodies.\nHuman peripheral T lymphocytes were isolated from whole blood of healthy donors and were incubated in a complete RPMI growth medium (500 ml RPMI Ca/Mg + heat inactivated FCS (10% final) + 5 ml 200 mM L-Glu (2 mM final) +5 ml […] Na pyruvate (1 mM final) + 5 ml Pen Strep antibiotics). Cells were activated using CD3 and CD28 antibodies, in the presence of relevant peptides at 10μM. Media was collected 48 hours following activation and secretion of IL2 and IFN-γ was determined according to standard protocols from R&D systems."}, "[3]": {"system": "MOG35-55–antigen specific T-cells", "experiment": "In-vitro T-cell proliferative response (H3-thymidine incorporation)", "type": "cell-based, mouse (C57Bl/6J)", "details": "peptide at 10μM, irradiated MOG35-55 presenting APCs, mean inhibition of proliferation, n = 12"}},
  "data": [
    {"sequence": "ASKAASASPVSAGVTGIGVLMLGVVAMGWASLG [HTLV Scr, scrambled HTLV FP peptide, same amino acid composition and length as the HTLV FP]", "values": [
      {"measurement": "IFN-γ secretion", "setting": "[1]", "result": "higher potency than the HTLV Scr"},
      {"measurement": "clinical symptoms of a cage of treated mice at DPI 17", "setting": "C57BL/6 female mice; additional experiment, S5 and S6 Movies", "result": "exhibiting clinical EAE symptoms"},
      {"measurement": "EAE clinical signs, additional experiment", "setting": "C57BL/6 female mice; single dose 1mg/kg, HTLV FP, HTLV Scr or vehicle, period 11 to 16 DPI, 5-point scale", "result": "ascent between 11 to 16 DPI"},
      {"measurement": "IFN-γ secretion, human T-cells", "setting": "[2]", "result": "had no effect on T-cell activation"},
      {"measurement": "IL2 secretion, human T-cells", "setting": "[2]", "result": "had no effect on T-cell activation"},
      {"measurement": "IL10 secretion, human T-cells", "setting": "[2]", "result": "had no effect on T-cell activation"},
      {"measurement": "inhibition of T-cell proliferation, activation by MOG35-55 presenting APCs", "setting": "[3]", "result": "higher potency than the HTLV Scr"}
    ]}
  ]
}
